In EP1683521A1, “Peptide deformylase inhibitors, their use, and pharmaceutical compositions containing the same” (CENTRE NATIONAL DE LA RECHERCHE SCIENTIFIQUE (CNRS), priority 2005, dated 2006):
Values after ≈ are worked out from the molar mass of the structure shown. Read-outs that look alike come from different tables or passages of the source.

Experiments:
EcPDF = target: T1, EcPDF (Escherichia coli, UniProt P0A6K3); assay: NMR titrations on peptide deformylase; assay type: binding; conditions: probed by NMR titrations
T1 construct: made in house

EcPDF1B = target: T2, EcPDF1B (Escherichia coli, UniProt P0A6K3); assay: PDF inhibition assay coupled to formate dehydrogenase (in vitro assay); assay type: biochemical
T2 construct: made in house

BsPDF2 = target: T3, BsPDF2 (Geobacillus stearothermophilus, UniProt O31410); assay: as above; assay type: biochemical, Bacillus stearothermophilus
T3 construct: made in house

AtPDF1A = target: T4, AtPDF1A (Arabidopsis thaliana, UniProt Q9FV53); assay: as above; assay type: biochemical; conditions: mitochondrial PDF, 25 nM in assay; 10 % dimethyl sulfoxide; (TB) = tight binding
T4 construct: made in house

[1] = system: Arabidopsis thaliana (ecotype WS4); assay: Growth inhibition of Arabidopsis thaliana; assay type: in vivo
B. subtilis-168 = assay: B. subtilis MIC
B. subtilis-M03482 = assay: B. subtilis MIC; conditions: Bacillus subtilis
B. subtilis-MHD101 = assay: B. subtilis MIC; conditions: Bacillus subtilis
B. subtilis-MHY101 = assay: B. subtilis MIC; conditions: Bacillus subtilis
E. coli-JM101Tr = assay: E. coli MIC, WT strain; conditions: Escherichia coli, WT strain JM101Tr
E. coli-CAG1284 = assay: E. coli MIC, tolC mutant strain; conditions: Escherichia coli
[2] = nickel-bound enzyme, 40 nM in assay, 10 % dimethyl sulfoxide, (TB) = tight binding, read-out: IC50
[3] = nickel-bound enzyme, 20 nM in assay, 10 % dimethyl sulfoxide, (TB) = tight binding, read-out: IC50
[4] = WT context (strains 168 and MO3482)

T3 sequence (O31410 whole entry): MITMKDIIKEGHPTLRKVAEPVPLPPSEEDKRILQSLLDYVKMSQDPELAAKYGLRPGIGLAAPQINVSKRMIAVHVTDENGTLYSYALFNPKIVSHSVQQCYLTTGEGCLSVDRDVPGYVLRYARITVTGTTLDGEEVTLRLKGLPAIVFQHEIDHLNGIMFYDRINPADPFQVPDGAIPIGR
T4 sequence (Q9FV53 61-269): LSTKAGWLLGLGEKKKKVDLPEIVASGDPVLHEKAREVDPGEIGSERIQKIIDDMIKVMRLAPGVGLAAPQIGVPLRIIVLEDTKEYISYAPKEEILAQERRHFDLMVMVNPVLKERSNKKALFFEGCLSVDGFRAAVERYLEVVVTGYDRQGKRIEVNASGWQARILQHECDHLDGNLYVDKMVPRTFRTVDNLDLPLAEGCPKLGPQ
T2 sequence (P0A6K3 whole entry): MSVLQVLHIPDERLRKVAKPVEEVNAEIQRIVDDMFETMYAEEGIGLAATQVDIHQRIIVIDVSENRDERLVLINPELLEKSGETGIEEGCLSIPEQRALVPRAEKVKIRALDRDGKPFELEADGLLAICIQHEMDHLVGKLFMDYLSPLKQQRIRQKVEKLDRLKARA
T1 sequence (P0A6K3 1-148): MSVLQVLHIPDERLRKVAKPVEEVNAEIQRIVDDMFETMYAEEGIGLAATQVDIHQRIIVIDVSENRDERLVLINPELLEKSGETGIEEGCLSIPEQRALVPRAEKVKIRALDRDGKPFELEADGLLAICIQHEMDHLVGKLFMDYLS

Structure (SMILES)	binding constant (EcPDF)	IC50 (EcPDF1B; [2])	IC50 (BsPDF2; [3])	IC50 (AtPDF1A)	concentration at which growth inhibition is observed [1]	MIC (B. subtilis-168; Bacillus subtilis)	MIC (B. subtilis-168; strain 168 (WT context))	MIC (B. subtilis-M03482)	MIC (B. subtilis-MHD101)	MIC (B. subtilis-MHY101)	IC50 (EcPDF1B)	IC50 (BsPDF2)	MIC (B. subtilis-168; [4])	MIC (E. coli-JM101Tr)	MIC (E. coli-CAG1284)
Brc1ccc2[nH]ccc2c1 [5-bromoindole]	in the millimolar range	–	–	–	–	–	–	–	–	–	–	–	–	–	–
O=C(Cc1cn(C(=O)OCc2ccccc2)c2ccc(Br)cc12)NO [Compound 2, 5-bromo-3-hydroxycarbamoylmethyl-indole-1-carboxylic acid benzyl ester]	–	0.026 µM	< 0.027 µM	14 µM	higher than 50 µM	20 µg/mL (≈ 49.6 µM)	20 µg/mL (≈ 49.6 µM)	16 µg/mL (≈ 39.7 µM)	12 µg/mL (≈ 29.8 µM)	6 µg/mL (≈ 14.9 µM)	–	–	–	–	–
CC(C)(C)OC(=O)NC(CC(=O)NO)Cc1ccccc1 (stereo not shown) [RAS270]	–	–	–	83 µM	–	> 300 µg/mL	–	> 300 µg/mL	> 300 µg/mL	8 µg/mL (≈ 27.2 µM)	0.044 µM	0.3 µM	no antibiotic properties	> 300 µg/mL	32 µg/mL (≈ 109 µM)
CC(C)(C)OC(=O)NC(Cc1ccccc1)CN(O)C=O (stereo not shown) [RAS358]	–	0.05 µM	0.4 µM	150 µM	–	> 300 µg/mL	–	> 300 µg/mL	> 300 µg/mL	9 µg/mL (≈ 30.6 µM)	–	–	no antibiotic properties	–	–
